Data as given in patent US7402600B2, “Nitroderivatives of cardiovascular agents” (NicOx S.A., priority 1999, dated 2008).
Entries after “also recorded” stand apart in the source; their conditions may differ. Read-outs that look alike come from different tables or passages of the source.

Columns and labels:
[1] = Test 4: inhibition of radical production from DPPH; settings: tested substance 100 μM in methanol, 30 minutes, absorbance 517 nm
Experimental: Test 4 is a colorimetric test which must not be satisfied by the precursor of B or B1 (precursor of the X2 or X2a of the formulas (I) and (II) respectively). The inhibition of the production of radicals from DPPH (2,2-diphenyl-1-picryl-hydrazyl) is described in M. S. Nenseter et Al., Atheroscler. Thromb. 15, 1338-1344, 1995. 100 μM solutions in methanol of the tested substances are prepared, and an aliquot of each of said solutions is added to a DPPH solution in methanol 0.1 M. After having stored the solutions at room temperature away from light for 30 minutes, their absorbances are read at the wave length of 517 nm, together with that of the corresponding DPPH solution at the same concentration. The absorbance decrease with respect to that of the solution of DPPH at the same concentration of the test solutions is determined. The effectiveness of the tested compound in inhibiting formation of radicals by DPPH is expressed by the following formula: (1−AS/AC)×100 wherein AS and AC are respectively the absorbance values of the solution containing the test compound together with DPPH and of the solution containing only DPPH. Test 4 is satisfied when the inhibition is equal or greater than 50%.
Test 4: Inhibition of the Radical Production from DPPH of Some Substances Used as Precursors of B or B1 (Ref. Formulas I and II of the Invention)
The method is based on a calorimetric test in which DPPH (2,2-diphenyl-1-picryl-hydrazyl) is used as the compound-forming radicals (M. S. Nenseter et Al., Atheroscler. Thromb. 15, 1338-1344, 1995).
Solutions in methanol of the tested substances at a final concentration 100 μM are initially prepared. 0.1 ml of each of these solutions are added to aliquots of 1 ml of a methanol solution 0.1 M of DPPH and then the final volume is brought to 1.5 ml. After having stored the solutions at room temperature away from light for 30 minutes, the absorbance at the wave length of 517 nm is read. It is determined the absorbance decrease with respect to the absorbance of a solution containing the same concentration of DPPH.
The efficacy of the test compound to inhibit the production of radicals, or antiradical activity, is expressed by the following formula: (1−AS/AC)×100 wherein AS and AC are, respectively, the absorbance values of the solution containing the test compound together+DPPH and of the solution containing only DPPH.

[2] = tested on: Human endothelial cells of the umbilical vein; assay: Test 2 (CIP): apoptosis (DNA fragmentation) induced by cumene hydroperoxide in endothelial cells; format: cell-based; settings: for activity at 100 µM: Homo sapiens, Endothelial cell, 1 h, read-out: Apoptosis % with respect to the controls treated only with CIP; for inhibition of apoptosis induced by CIP (in words, t Student p<0.01): CIP 5 mM
gastrointestinal mucosa = assay: Test 1 (NEM): gastric tolerability of precursor drugs in rats treated or not with N-ethylmaleimide; settings: rat, in vivo, 24 h
Experimental: The animals (rats) are distributed in the following groups (no. 10 animals for group):
• 1° group: treatment: only carrier (aqueous suspension 1% w/v of carboxymethylcellulose, dose: 5 ml/Kg when the drug is administered by os, or a physiologic solution when parenterally administered, i.e. by subcutaneous, intraperitoneal, intravenous or intramuscular route), • 2° group: treatment: carrier as above defined+NEM, B) Groups Treated with the Drug: • group I: treatment: carrier+drug, • group II: treatment: carrier+drug+NEM.
The administration routes are those known for the drug, and can be the oral or subcutaneous, intraperitoneal, intravenous or intramuscular route.
(§1) The animals are sacrificed after 24 hours and then one proceeds to the evaluation of the damage to the gastrointestinal mucosa.
Test 1—Experimental Model in Vivo with N-ethylmaleimide (NEM): Study of the Gastric Tolerability of Some Drugs Screened as Precursors of the Compounds of the Invention.
The animals (rats, weight about 200 g) are distributed in the following groups (No. 10 animals for group):
• 1° group: treatment: only carrier (aqueous suspension 1% w/v of carboxymethylcellulose, dose: 5 ml/Kg when the drug is administered by os, physiologic solution when by parenteral route), • 2° group: treatment: carrier+NEM B) Groups Administered with Each Drug: • group I: treatment: carrier+drug, • group II: treatment: carrier+drug+NEM.
The drug is administered one hour later, in suspension in the carrier. Animals are sacrificed after 24 hours and evaluation of the damage to the gastrointestinal mucosa is made by counting the number of rats, inside each group, with lesions to the stomach at a visual inspection. The total number of said rats is then divided by the total number of rats of the group and multiplied by 100.

gastric mucosa = assay: Example F6: gastric tolerability of invention compounds versus precursor drugs, with or without L-NAME; format: in vivo, rats
Description: Gastric Tolerability Test of the Compounds According to the Invention in the Confront of the Corresponding Precursor Drugs in Conditions of Endothelial Dysfunctions Induced by L-NAME (N^w-nitro-L-arginine-methyl ester).

[3] = tested on: gastrointestinal mucosa, GPT, blood pressure; settings: rat, in vivo
Experimental: The endothelial dysfunction is evaluated by determining the damage to the gastrointestinal mucosa, the hepatic damage and blood hypertension induced by administration of L-NAME.
The animals (rats) are divided in groups as herein below shown. The group receiving L-NAME is treated for 4 weeks with said compound dissolved at a concentration of 400 mg/litre in drinking water. The following groups are constituted (No. 10 animals for group):
(§2) • 1° group: only carrier (aqueous suspension 1% w/v of carboxymethylcellulose, dose: 5 ml/Kg when the drug is administered by os, phisiologic solution when administered parenterally), • 2° group: carrier+L-NAME, B) Groups Administered with the Drug: • 3° group: carrier+drug, • 4° group: carrier+drug+L-NAME.
The administration routes are those known for the drug, and can be the oral or subcutaneous, intraperiteneal, intravenous or intramuscular route. […] The drug is administered once a day for 4 weeks.
At the end of the four weeks treatment access to water is prevented and after 24 hours the animals are sacrificed.
One hour before the sacrifice blood-pressure is determined, and a blood pressure increase is taken as an evaluation of the damage to vascular endothelium. […] The hepatic damage is determined by evaluation of the glutamic-pyruvic transaminase (GPT increase) after sacrifice.
Test 3-Experimental in Vivo Model with N^w-nitro-L-arginine-methyl ester (L-NAME): Gastric Tolerability (Gastrointestinal Damage Incidence), Hepatic (GPT Dosage, Glutamic-pyruvic Transaminase) and Cardiovascular (Blood Pressure) Tolerability of Some Drugs Screened as Precursors of the Compounds of the Invention.
The endothelial dysfunction is evaluated by determining the damage induced by L-NAME administration to the gastrointestinal mucosa, the hepatic damage (GPT increase), and the vascular endothelium or cardiovascular damage as blood hypertension.
The animals (rats, average weight 200 g) are divided in groups as herein below described. The group receiving L-NAME is treated for 4 weeks with said compound dissolved at the concentration of 400 mg/litre in drinking water. The following groups (No. 10 animals for group) are constituted:
as §2, with “group: treatment:” for “group:”, “physiologic” for “phisiologic”, “by parenteral route),” for “administered parenterally),”, “Treated” for “Administered”
Each drug is administered once a day for 4 weeks.
At the end of the four weeks access to water is prevented and after 24 hours the animals are sacrificed.
One hour before the sacrifice blood pressure is determined and a blood pressure increase is taken as an indication of a damage being occurred to vascular endothelium.
The hepatic damage is determined by evaluation after the sacrifice of the glutamic-pyruvic transaminase (GPT increase).
The % gastric lesions have been determined as in Test 1.

in vivo = settings: rat, in vivo, po
Experimental: as §1

[4] = drug 10^-4 M, CIP 5 mM for one hour, DNA fragmentation
[5] = rats, dose and route as in the column beside (higher doses than in L-NAME animals)

O=C1NC(C(=O)O)CS1 (stereo not shown) [2-oxo-4-thiazolidin carboxylic acid]
% inhibition radical production from DPPH [1]: 0%

Nc1nc2c(ncn2COCCO)c(=O)[nH]1 [Aciclovir]
activity at 100 µM [2, 4]: 95% | inhibition of apoptosis induced by CIP (in words, t Student p<0.01) ([2]; drug 10^-4 M): do not significantly inhibit apoptosis

NCCCC(O)(P(=O)(O)O)P(=O)(O)O [Alendronate]
inhibition of apoptosis induced by CIP (in words, t Student p<0.01) ([2]; drug 10^-4 M): do not significantly inhibit apoptosis | Gastro-enteropathy (% incidence) without NEM (gastrointestinal mucosa): 0% | % gastropathy, animals not treated with L-NAME (gastric mucosa; rat, in vivo, 4 weeks): 90% | % gastropathy, animals treated with L-NAME (gastric mucosa; rat, in vivo, 4 weeks): 70%

CC1(C)S[C@@H]2[C@H](NC(=O)[C@H](N)c3ccccc3)C(=O)N2[C@H]1C(=O)O [Ampicilline]
activity at 100 µM [2, 4]: 94% | inhibition of apoptosis induced by CIP (in words, t Student p<0.01) ([2]; drug 10^-4 M): do not significantly inhibit apoptosis

O=C(O)COCCN1CCN(C(c2ccccc2)c2ccc(Cl)cc2)CC1 (stereo not shown) [Cetirizine]
activity at 100 µM [2, 4]: 115% | inhibition of apoptosis induced by CIP (in words, t Student p<0.01) ([2]; drug 10^-4 M): do not significantly inhibit apoptosis

N[C@@H](CS)C(=O)O [Cisteine]
% inhibition radical production from DPPH [1]: 100%

COC(=O)[C@H](c1ccccc1Cl)N1CCc2sccc2C1 [Clopidogrel]
activity at 100 µM [2, 4]: 110% | inhibition of apoptosis induced by CIP (in words, t Student p<0.01) ([2]; drug 10^-4 M): do not significantly inhibit apoptosis

O=C(O)Cc1ccccc1Nc1c(Cl)cccc1Cl [Diclofenac]
% gastropathy, animals not treated with L-NAME (gastric mucosa; rat, in vivo, 4 weeks): 70% | % gastropathy, animals treated with L-NAME (gastric mucosa; rat, in vivo, 4 weeks): 100%

Cn1c(=O)c2c(ncn2CC(O)CO)n(C)c1=O (stereo not shown) [Diphylline]
inhibition of apoptosis induced by CIP (in words, t Student p<0.01) ([2]; drug 10^-4 M): do not significantly inhibit apoptosis | Apoptosis % with respect to the controls treated only with CIP [2, 4]: 95%

COc1cccc2c1C(=O)c1c(O)c3c(c(O)c1C2=O)C[C@@](O)(C(=O)CO)C[C@@H]3O[C@H]1C[C@H](N)[C@H](O)[C@H](C)O1 [Doxorubicin]
GPT % without L-NAME [3]: 195% | Gastroenteropathy % without L-NAME ([3]; 4 weeks): 30%

CCOC(=O)[C@H](CCc1ccccc1)N[C@@H](C)C(=O)N1CCC[C@H]1C(=O)O [Enalapril]
activity at 100 µM [2, 4]: 80% | inhibition of apoptosis induced by CIP (in words, t Student p<0.01) ([2]; drug 10^-4 M): do not significantly inhibit apoptosis

O=C(Cc1ccccc1Nc1c(Cl)cccc1Cl)NC(Cc1c[nH]cn1)C(=O)OCCCCO[N+](=O)[O-] (stereo not shown) [Example 4, [2-[(2,6-dichlorophenyl)amino]-benzeneacetyloxy]-(L)-histidine 4-(nitroxy)butyl ester]
% gastropathy, animals treated with L-NAME (gastric mucosa; rats, L-NAME): 0% | % gastropathy, animals not treated with L-NAME (gastric mucosa; [5]): 0%

O=C(CCC(=O)OCCCCO[N+](=O)[O-])Nc1c2c(nc3ccccc13)CCCC2 [Example 5]
% gastropathy, animals treated with L-NAME (gastric mucosa; rats, L-NAME): 0% | % gastropathy, animals not treated with L-NAME (gastric mucosa; [5]): 20%

O=C(CCC(=O)OCCCCO[N+](=O)[O-])NCCCC(O)(P(=O)(O)O)P(=O)(O)O [Example 6, [4-amino-[4-oxo-(4-nitroxybutyloxy)butanoyl]-1-hyroxybutyliden] biphosphonic acid]
% gastropathy, animals treated with L-NAME (gastric mucosa; rats, L-NAME): 10% | % gastropathy, animals not treated with L-NAME (gastric mucosa; [5]): 20%

Nc1c(Br)cc(Br)cc1CNC1CCC(OC(=O)CCC(=O)OCCCCO[N+](=O)[O-])CC1 (stereo not shown) [Example 7, [4-oxo-(4-nitroxybutyloxy)butanoyl4-(2-amino-3,5-dibromophenyl)-methylamino] cyclohexanol ester]
% gastropathy, animals treated with L-NAME (gastric mucosa; rats, L-NAME): 0% | % gastropathy, animals not treated with L-NAME (gastric mucosa; [5]): 10%

COc1cc(/C=C/C(=O)O)ccc1O [Ferulic acid]
% inhibition radical production from DPPH [1]: 100%

O=C(O)c1cc(O)ccc1O [Gentisic acid]
% inhibition radical production from DPPH [1]: 80%

COc1ccc2c(c1)c(CC(=O)O)c(C)n2C(=O)c1ccc(Cl)cc1 [Indomethacin]
inhibition of apoptosis induced by CIP (in words, t Student p<0.01) ([2]; drug 10^-4 M): not significantly different with respect to that of the controls | inhibition of apoptosis induced by CIP (in words, t Student p<0.01) ([2]; drug 10^-4 M, listed as indomethacin): do not significantly inhibit apoptosis | MTD at 24 h (in vivo): 7.5 mg/kg | Gastro-enteropathy (% incidence) without NEM (gastrointestinal mucosa): 0%

Nc1ccc(O)c(C(=O)O)c1 [Mesalamine]
inhibition of apoptosis induced by CIP (in words, t Student p<0.01) ([2]; drug 10^-4 M): inhibit apoptosis; also recorded: inhibits the apoptosis induced by CIP | Gastro-enteropathy (% incidence) without NEM (gastrointestinal mucosa): 0%

CC(=O)N[C@@H](CS)C(=O)O [N-acetylcisteine]
% inhibition radical production from DPPH ([1]; listed as N-acetylcysteine): 100%

NC(=O)c1cccnc1 [Nicotinamide]
inhibition of apoptosis induced by CIP (in words, t Student p<0.01) ([2]; drug 10^-4 M): do not significantly inhibit apoptosis

CC(=O)Nc1ccc(O)cc1 [Paracetamol]
inhibition of apoptosis induced by CIP (in words, t Student p<0.01) ([2]; drug 10^-4 M): do not significantly inhibit apoptosis; also recorded: not significantly different with respect to that of the controls

CC(C)(C)NCC(O)c1ccc(O)c(CO)c1 (stereo not shown) [Salbutamol]
inhibition of apoptosis induced by CIP (in words, t Student p<0.01) ([2]; drug 10^-4 M): do not significantly inhibit apoptosis

CCC(C)(C)C(=O)O[C@H]1C[C@@H](C)C=C2C=C[C@H](C)[C@H](CC[C@@H]3C[C@@H](O)CC(=O)O3)[C@H]21 [Simvastatine]
activity at 100 µM [2]: 72%
